From ChEMBL document CHEMBL1201861, “Genomics of Drug Sensitity in Cancer screening data, Wellcome Trust Sanger Institute”
Where a name gives a salt, the structure may show the parent alone.

What was measured:
COR-L105 = experiment: cells; type: functional, cell-based, Homo sapiens
Description: SANGER: Inhibition of human COR-L105 cell growth in a cell viability assay.

COR-L279 = experiment: SANGER: Inhibition of human COR-L279 cell growth in a cell viability assay.; type: functional, cell-based
DMS-53 = experiment: cells; type: functional, cell-based, Homo sapiens;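 note: cell viability assay measuring growth inhibition of human DMS-53 cells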
Description: SANGER: Inhibition of human DMS-53 cell growth in a cell viability assay.

DV-90 = experiment: cells; type: functional, cell-based, Homo sapiens;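 note: Read-out is a viability assay, with IC50 reflecting the drop in DV-90 cell growth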
Description: SANGER: Inhibition of human DV-90 cell growth in a cell viability assay.

EB-3 = experiment: cells; type: functional, cell-based, Homo sapiens;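 note: human EB-3 cells, growth inhibition read out via a cell viability assay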
Description: SANGER: Inhibition of human EB-3 cell growth in a cell viability assay.

EB2 = experiment: cells; type: functional, cell-based, Homo sapiens;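 note: growth inhibition of EB2 cells, read out with a cell viability assay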
Description: SANGER: Inhibition of human EB2 cell growth in a cell viability assay.

EFE-184 = experiment: cells; type: functional, cell-based, Homo sapiens
Description: SANGER: Inhibition of human EFE-184 cell growth in a cell viability assay.

EHEB = experiment: cells; type: functional, cell-based, Homo sapiens;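 note: growth inhibition of human EHEB cells, read out with a cell viability assay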
Description: SANGER: Inhibition of human EHEB cell growth in a cell viability assay.

FaDu = experiment: cells; type: functional, cell-based, Homo sapiens;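 note: cell viability readout of growth inhibition in FaDu cells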
Description: SANGER: Inhibition of human FADU cell growth in a cell viability assay.

HCT-116 = experiment: cells; type: functional, cell-based, Homo sapiens
Description: SANGER: Inhibition of human HCT-116 cell growth in a cell viability assay.

HMV-2 cell line = experiment: cells; type: functional, cell-based, Homo sapiens;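 note: growth inhibition of HMV-II cells, read out with a cell viability assay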
Description: SANGER: Inhibition of human HMV-II cell growth in a cell viability assay.

HSC-2 = experiment: cells; type: functional, cell-based, Homo sapiens;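 note: growth inhibition of human HSC-2 cells, read out by a cell viability assay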
Description: SANGER: Inhibition of human HSC-2 cell growth in a cell viability assay.

KARPAS-422 = experiment: cells; type: functional, cell-based, Homo sapiens
Description: SANGER: Inhibition of human KARPAS-422 cell growth in a cell viability assay.

MDA-MB-157 = experiment: cells; type: functional, cell-based, Homo sapiens
Description: SANGER: Inhibition of human MDA-MB-157 cell growth in a cell viability assay.

MEL-JUSO = experiment: cells; type: functional, cell-based, Homo sapiens;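 note: growth inhibition of human MEL-JUSO cells, read out with a cell viability assay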
Description: SANGER: Inhibition of human MEL-JUSO cell growth in a cell viability assay.

MES-SA = experiment: cells; type: functional, cell-based, Homo sapiens;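 note: growth inhibition of human MES-SA cells, read out with a cell viability assay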
Description: SANGER: Inhibition of human MES-SA cell growth in a cell viability assay.

MRK-nu-1 = experiment: cells; type: functional, cell-based, Homo sapiens;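 note: cell viability assay measuring growth suppression of human MRK-nu-1 cells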
Description: SANGER: Inhibition of human MRK-nu-1 cell growth in a cell viability assay.

NCI-H1618 = experiment: cells; type: functional, cell-based, Homo sapiens;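 note: growth inhibition of human NCI-H1618 cells, measured by a cell viability assay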
Description: SANGER: Inhibition of human NCI-H1618 cell growth in a cell viability assay.

NCI-H1734 = experiment: cells; type: functional, cell-based, Homo sapiens;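 note: growth inhibition of human NCI-H1734 cells, read out with a cell viability assay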
Description: SANGER: Inhibition of human NCI-H1734 cell growth in a cell viability assay.

NCI-H322M = experiment: cells; type: functional, cell-based, Homo sapiens;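 note: cell viability assay measuring inhibition of growth of human NCI-H322M cells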
Description: SANGER: Inhibition of human NCI-H322M cell growth in a cell viability assay.

NCI-H838 = experiment: cells; type: functional, cell-based, Homo sapiens;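 note: growth inhibition of human NCI-H838 cells, read out by a cell viability assay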
Description: SANGER: Inhibition of human NCI-H838 cell growth in a cell viability assay.

P12-Ichikawa = experiment: cells; type: functional, cell-based, Homo sapiens
SK-N-AS = experiment: cells; type: functional, cell-based, Homo sapiens;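 note: growth inhibition of human SK-N-AS cells, measured with a cell viability assay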
Description: SANGER: Inhibition of human SK-N-AS cell growth in a cell viability assay.

SN12C = experiment: cells; type: functional, cell-based, Homo sapiens;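 note: growth inhibition of human SN12C cells, measured by a cell viability assay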
Description: SANGER: Inhibition of human SN12C cell growth in a cell viability assay.

SW1990 = experiment: cells; type: functional, cell-based, Homo sapiens
Description: SANGER: Inhibition of human SW1990 cell growth in a cell viability assay.

T47D = experiment: cells; type: functional, cell-based, Homo sapiens;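 note: growth inhibition of human T47D cells, measured with a cell viability assay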
Description: SANGER: Inhibition of human T47D cell growth in a cell viability assay.

TALL-1 = experiment: cells; type: functional, cell-based, Homo sapiens;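 note: growth inhibition of cultured human TALL-1 cells, read out by a cell viability assay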
Description: SANGER: Inhibition of human TALL-1 cell growth in a cell viability assay.

CWR22R = experiment: cells; type: functional, cell-based, Homo sapiens;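 note: growth inhibition of 22Rv1 cells, read out with a cell viability assay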
Description: SANGER: Inhibition of human 22RV1 cell growth in a cell viability assay.

769-P = experiment: cells; type: functional, cell-based, Homo sapiens
Description: SANGER: Inhibition of human 769-P cell growth in a cell viability assay.

8505C = experiment: cells; type: functional, cell-based, Homo sapiens
Description: SANGER: Inhibition of human 8505C cell growth in a cell viability assay.

BC1 cell line = experiment: SANGER: Inhibition of human BC-1 cell growth in a cell viability assay.; type: functional, cell-based
BFTC-909 = experiment: cells; type: functional, cell-based, Homo sapiens
Description: SANGER: Inhibition of human BFTC-909 cell growth in a cell viability assay.

C-4-II = experiment: SANGER: Inhibition of human C-4-II cell growth in a cell viability assay.; type: functional, cell-based
CAL-148 = experiment: cells; type: functional, cell-based, Homo sapiens
Description: SANGER: Inhibition of human CAL-148 cell growth in a cell viability assay.

CHP-126 = experiment: cells; type: functional, cell-based, Homo sapiens
Description: SANGER: Inhibition of human CHP-126 cell growth in a cell viability assay.

`Nc1ccn([C@@H]2O[C@H](CO)[C@@H](O)C2(F)F)c(=O)n1` [GEMCITABINE] gave an IC50 (COR-L105; Homo sapiens, COR-L105) of 0.0294 µM, an IC50 (COR-L279; Homo sapiens, COR-L279) of 0.0539 µM and an IC50 (DMS-53; Homo sapiens, DMS-53) of over 1.02 µM. The IC50 (DV-90; Homo sapiens, DV-90) was over 1.02 µM, the IC50 (EB-3; Homo sapiens, EB-3) was over 1.02 µM and the IC50 (EB2; Homo sapiens, EB2) was 0.00201 µM. It also gave an IC50 (EFE-184; Homo sapiens, EFE-184) of over 1.02 µM, an IC50 (EHEB; Homo sapiens, EHEB) of 0.227 µM and an IC50 (FaDu; Homo sapiens, FaDu) of 0.105 µM. For the same compound, the IC50 (HCT-116; Homo sapiens, HCT-116) was 0.0508 µM, the IC50 (HMV-2 cell line; Homo sapiens, HMV-2) was 0.0243 µM and the IC50 (HSC-2; Homo sapiens, HSC-2) was 0.00303 µM. It also gave an IC50 (KARPAS-422; Homo sapiens, KARPAS-422) of 0.0858 µM, an IC50 (MDA-MB-157; Homo sapiens, MDA-MB-157) of over 1.02 µM and an IC50 (MEL-JUSO; Homo sapiens, MEL-JUSO) of under 0.004 µM. For the same compound, the IC50 (MES-SA; Homo sapiens, MES-SA) was under 0.004 µM, the IC50 (MRK-nu-1; Homo sapiens, MRK-nu-1) was 0.00257 µM and the IC50 (NCI-H1618; Homo sapiens, NCI-H1618) was 0.198 µM. It also gave an IC50 (NCI-H1734; Homo sapiens, NCI-H1734) of 0.0113 µM, an IC50 (NCI-H322M; Homo sapiens, NCI-H322M) of over 1.02 µM and an IC50 (NCI-H838; Homo sapiens, NCI-H838) of 0.499 µM. For the same compound, the IC50 (P12-Ichikawa; Homo sapiens, P12-Ichikawa) was 0.0847 µM, the IC50 (SK-N-AS; Homo sapiens, SK-N-AS) was over 1.02 µM and the IC50 (SN12C; Homo sapiens, SN12C) was 0.497 µM. The IC50 (SW1990; Homo sapiens, SW1990) was 0.113 µM, the IC50 (T47D; Homo sapiens, T47D) was over 1.02 µM and the IC50 (TALL-1; Homo sapiens, TALL-1) was over 1.02 µM. It also gave an IC50 (CWR22R; Homo sapiens, 22Rv1) of 0.0965 µM, an IC50 (769-P; Homo sapiens, 769-P) of under 0.004 µM and an IC50 (8505C; Homo sapiens, 8505C) of 0.00106 µM. The IC50 (BC1 cell line; Homo sapiens, BC1) was 0.0338 µM, the IC50 (BFTC-909; Homo sapiens, BFTC-909) was 0.146 µM and the IC50 (C-4-II; Homo sapiens, C-4-II) was 0.152 µM. It also gave an IC50 (CAL-148; Homo sapiens, CAL-148) of 0.0172 µM and an IC50 (CHP-126; Homo sapiens, CHP-126) of 0.0241 µM.

With `O=C(O)c1ccc(-c2c[nH]c3ncc(-c4ccccc4)cc23)cc1C1CCCC1` [GSK-650394] the IC50 (COR-L105; Homo sapiens, COR-L105) was over 16 µM, the IC50 (COR-L279; Homo sapiens, COR-L279) was over 16 µM and the IC50 (DMS-53; Homo sapiens, DMS-53) was over 16 µM. For the same compound, the IC50 (DV-90; Homo sapiens, DV-90) was over 16 µM, the IC50 (EB-3; Homo sapiens, EB-3) was over 16 µM and the IC50 (EB2; Homo sapiens, EB2) was over 16 µM. The IC50 (EFE-184; Homo sapiens, EFE-184) was over 16 µM, the IC50 (EHEB; Homo sapiens, EHEB) was over 16 µM and the IC50 (FaDu; Homo sapiens, FaDu) was over 16 µM. The IC50 (HCT-116; Homo sapiens, HCT-116) was over 16 µM, the IC50 (HMV-2 cell line; Homo sapiens, HMV-2) was 7.51 µM and the IC50 (HSC-2; Homo sapiens, HSC-2) was over 16 µM. For the same compound, the IC50 (KARPAS-422; Homo sapiens, KARPAS-422) was over 16 µM, the IC50 (MDA-MB-157; Homo sapiens, MDA-MB-157) was over 16 µM and the IC50 (MEL-JUSO; Homo sapiens, MEL-JUSO) was 4.69 µM. It also gave an IC50 (MES-SA; Homo sapiens, MES-SA) of 5.56 µM, an IC50 (MRK-nu-1; Homo sapiens, MRK-nu-1) of 7.05 µM and an IC50 (NCI-H1618; Homo sapiens, NCI-H1618) of over 16 µM. The IC50 (NCI-H1734; Homo sapiens, NCI-H1734) was over 16 µM, the IC50 (NCI-H322M; Homo sapiens, NCI-H322M) was over 16 µM and the IC50 (NCI-H838; Homo sapiens, NCI-H838) was over 16 µM. The IC50 (P12-Ichikawa; Homo sapiens, P12-Ichikawa) was over 16 µM, the IC50 (SK-N-AS; Homo sapiens, SK-N-AS) was over 16 µM and the IC50 (SN12C; Homo sapiens, SN12C) was over 16 µM. The IC50 (SW1990; Homo sapiens, SW1990) was over 16 µM, the IC50 (T47D; Homo sapiens, T47D) was over 16 µM and the IC50 (TALL-1; Homo sapiens, TALL-1) was over 16 µM. For the same compound, the IC50 (CWR22R; Homo sapiens, 22Rv1) was over 16 µM, the IC50 (769-P; Homo sapiens, 769-P) was 4.89 µM and the IC50 (8505C; Homo sapiens, 8505C) was 7.78 µM. The IC50 (BC1 cell line; Homo sapiens, BC1) was 2.52 µM, the IC50 (BFTC-909; Homo sapiens, BFTC-909) was 14.6 µM and the IC50 (C-4-II; Homo sapiens, C-4-II) was 13.9 µM. The IC50 (CAL-148; Homo sapiens, CAL-148) was over 16 µM and the IC50 (CHP-126; Homo sapiens, CHP-126) was over 16 µM.

`COC1=CC(c2cc3ccccc3[nH]2)=N/C1=C\c1[nH]c(C)cc1C` [OBATOCLAX MESYLATE] showed an IC50 (COR-L105; Homo sapiens, COR-L105) of 0.322 µM, an IC50 (COR-L279; Homo sapiens, COR-L279) of 0.572 µM and an IC50 (DMS-53; Homo sapiens, DMS-53) of 0.478 µM. The IC50 (DV-90; Homo sapiens, DV-90) was 1.76 µM, the IC50 (EB-3; Homo sapiens, EB-3) was 0.173 µM and the IC50 (EB2; Homo sapiens, EB2) was under 0.0625 µM. For the same compound, the IC50 (EFE-184; Homo sapiens, EFE-184) was 7.32 µM, the IC50 (EHEB; Homo sapiens, EHEB) was 0.823 µM and the IC50 (FaDu; Homo sapiens, FaDu) was 0.426 µM. For the same compound, the IC50 (HCT-116; Homo sapiens, HCT-116) was 0.088 µM, the IC50 (HMV-2 cell line; Homo sapiens, HMV-2) was 0.0524 µM and the IC50 (HSC-2; Homo sapiens, HSC-2) was 0.0247 µM. The IC50 (KARPAS-422; Homo sapiens, KARPAS-422) was 0.166 µM, the IC50 (MDA-MB-157; Homo sapiens, MDA-MB-157) was 0.823 µM and the IC50 (MEL-JUSO; Homo sapiens, MEL-JUSO) was 0.0247 µM. For the same compound, the IC50 (MES-SA; Homo sapiens, MES-SA) was 0.405 µM, the IC50 (MRK-nu-1; Homo sapiens, MRK-nu-1) was 0.0494 µM and the IC50 (NCI-H1618; Homo sapiens, NCI-H1618) was 2.88 µM. For the same compound, the IC50 (NCI-H1734; Homo sapiens, NCI-H1734) was 0.42 µM, the IC50 (NCI-H322M; Homo sapiens, NCI-H322M) was over 16 µM and the IC50 (NCI-H838; Homo sapiens, NCI-H838) was 0.528 µM. For the same compound, the IC50 (P12-Ichikawa; Homo sapiens, P12-Ichikawa) was 0.0735 µM, the IC50 (SK-N-AS; Homo sapiens, SK-N-AS) was 1.05 µM and the IC50 (SN12C; Homo sapiens, SN12C) was 0.886 µM. It also gave an IC50 (SW1990; Homo sapiens, SW1990) of 0.239 µM, an IC50 (T47D; Homo sapiens, T47D) of 1.24 µM and an IC50 (TALL-1; Homo sapiens, TALL-1) of over 16 µM. The IC50 (CWR22R; Homo sapiens, 22Rv1) was 0.274 µM, the IC50 (769-P; Homo sapiens, 769-P) was under 0.0625 µM and the IC50 (8505C; Homo sapiens, 8505C) was 0.0304 µM. It also gave an IC50 (BC1 cell line; Homo sapiens, BC1) of 0.0602 µM, an IC50 (BFTC-909; Homo sapiens, BFTC-909) of 0.453 µM and an IC50 (C-4-II; Homo sapiens, C-4-II) of 3.76 µM. The IC50 (CAL-148; Homo sapiens, CAL-148) was 1.04 µM and the IC50 (CHP-126; Homo sapiens, CHP-126) was 1.57 µM.

In the case of BLEOMYCIN, the IC50 (COR-L105; cor-l105) is reported as 7.37 µM, the IC50 (COR-L279; cor-l279) is reported as 25.4 µM and the IC50 (DMS-53; dms-53) is reported as 319 µM. It also gave an IC50 (DV-90; dv-90) of 182 µM, an IC50 (EB-3; eb-3) of 21.8 µM and an IC50 (EB2; eb2) of 0.691 µM. The IC50 (EFE-184; efe-184) was 383 µM, the IC50 (EHEB; eheb) was 1.61 µM and the IC50 (FaDu; fadu) was 5.14 µM. For the same compound, the IC50 (HCT-116; hct-116) was 2.88 µM, the IC50 (HMV-2 cell line; hmv-2) was 0.0697 µM and the IC50 (HSC-2; hsc-2) was 2.47 µM. For the same compound, the IC50 (KARPAS-422; karpas-422) was 168 µM, the IC50 (MDA-MB-157; mda-mb-157) was 307 µM and the IC50 (MEL-JUSO; mel-juso) was 0.109 µM. It also gave an IC50 (MES-SA; mes-sa) of 1.67 µM, an IC50 (MRK-nu-1; mrk-nu-1) of 1.45 µM and an IC50 (NCI-H1618; nci-h1618) of 5.99 µM. For the same compound, the IC50 (NCI-H1734; nci-h1734) was 0.0174 µM, the IC50 (NCI-H322M; nci-h322m) was 7320 µM and the IC50 (NCI-H838; nci-h838) was 5.95 µM. For the same compound, the IC50 (P12-Ichikawa; p12-ichikawa) was 5.55 µM, the IC50 (SK-N-AS; sk-n-as) was 1950 µM and the IC50 (SN12C; sn12c) was 315 µM. The IC50 (SW1990; sw1990) was 4.24 µM, the IC50 (T47D; t47d) was 168 µM and the IC50 (TALL-1; tall-1) was 244 µM. For the same compound, the IC50 (CWR22R; cwr22r) was 7.33 µM, the IC50 (769-P; 769-p) was 0.123 µM and the IC50 (8505C; 8505c) was 1.04 µM. It also gave an IC50 (BC1 cell line; bc1) of 3.92 µM, an IC50 (BFTC-909; bftc-909) of 0.0138 µM and an IC50 (C-4-II; c-4-ii) of 0.381 µM. The IC50 (CAL-148; cal-148) was 4.6 µM and the IC50 (CHP-126; chp-126) was 1.27 µM.
